The results in this text go back to patent US20070014736A1, “Methods of delivering corticotroph-derived glycoprotein hormone” (priority 2005, published 2007).

In test [1] the test system is human primary adipocytes. In words: CRE-luciferase reporter assay in human primary adipocytes. The test is classed as cell-based. The source says: (§1) Differentiated murine 3T3 L1 adipocytes and primary human adipocytes were used to study signal transduction of CGH. 3T3 L1 fibroblasts were differentiated into adipocytes and the cells were transduced with recombinant adenovirus containing a reporter construct, a firefly luciferase gene under the control of cAMP response element (CRE) enhancer sequences. This assay system detects cAMP-mediated gene induction downstream of activation of Gs-coupled G-protein coupled receptors (GPCR's). […] In a separate experiment, undifferentiated 3T3 L1 fibroblasts were transduced with the recombinant adenovirus. […] In another experiment, human primary adipocytes were also transduced with the recombinant adenovirus containing a reporter construct. Treatment of the human adipocytes with isoproterenol produced a 17-fold induction of luciferase expression.
(§2) Cells were cultured at 37° C. in an 8% CO2 humidified incubator. Cells were seeded to collagen-coated 96-well plates (Becton Dickinson, cat. #356407) at a density of 5,000 cells per well. […] Luciferase activity was measured on a microplate luminometer (PerkinElmer Life Sciences, Inc., model LB 96V2R) following automated injection of 40 μl of luciferase assay substrate into each well. […]
Background: A reporter such as luciferase makes a cellular process visible.

For test [2], the system named is differentiated 3T3 L1 adipocytes. The test is described as follows: CRE-luciferase reporter assay in differentiated 3T3 L1 adipocytes. The format is cell-based, murine.
Source text: as §1, §2

Test [3] concerns neutrophil infiltration in the ears. The test is described as follows: Neutrophil (Gr-1) histomorphometry of ears in DTH experiment #1. The test is classed as in vivo, mice. The following applies: 1.5 mg/kg Dex i.p. at challenge (day 7). As for the experimental part: Ears from mice in DTH experiment #1 were analyzed by immunohistochemistry to assess which cell types were most affected by CGH treatment. Ears were fixed in Zinc/Tris buffer (2.3 mM calcium acetate/31.6 mM zinc acetate/36.7 mM zinc chloride in 0.1M Tris-HCL buffer, pH 7.4) for 24 hours at room temperature and stained with antibodies specific for CD4, CD8, CD11c, and Gr-1 (neutrophils). […] Ears were stained using a TechMate 500 autoimmunostainer (Biotech/Ventana) MIP protocol with some modifications. […] This step was followed, after a wash, by biotinylated rabbit anti-rat IgG secondary antibody (Dako, used at 10 ug/ml in PBS with 2% normal rabbit serum and 2% nonfat dry milk) for 45 min. The sections were then washed and treated with HP Block (1.5% H2O2 in 50% methanol) 3 times, 7 min each, followed by 25 min in avidin-biotin complex, 3 times of 4 min each in DAB (Diaminobenzidine), then with Methyl green for 10 min.
From this staining procedure, there was a clear reduction in the number of neutrophils infiltrating the ears of those mice treated with CGH or Dex, compared to the PBS-treated controls. Histomorphometry was performed to obtain the average pixel density of neutrophils per unit length (1 mm) present in the ear samples. Despite a fair amount of variability among each group, there was a significant reduction in neutrophil staining in the Dex and low dose CGH groups, as well as a nearly significant (p=0.0507) reduction in the high dose CGH group (see TABLE 5, p values).

The subject of test [4] is adrenal glands. The test is described as follows: Intraperitoneal recombinant CGH for two weeks, adrenal weight. The settings on record: 0.5 mg/kg Dex i.p. daily, day 15. The format is in vivo, mice. The source says:
Summary: Mice were exposed to CGH through infection with adenovirus particles expressing GPHA2 and GPHB5, leading to overexpression and secretion of CGH from the liver of these animals. […] The hypertrophy was apparent in the inner cortical layers, the zona fasciculata and the zona reticularis. Similarly, mice were exposed to CGH through intraperitoneal injection of recombinant CGH protein alone, recombinant CGH protein along with the glucocorticoid Dexamethasone (Dex), Dex alone, or PBS alone daily for two weeks.
Sixteen C57BL/6 female mice at 8 weeks of age were separated into four groups. The first group received daily injections of 0.25 mg/kg of recombinant CGH protein intraperitoneally. The second group received daily injections of PBS using the same procedure. The third group received daily injections of 0.25 mg/kg of CGH plus 0.05 mg/kg Dex and the final group received 0.5 mg/kg Dex, alone. Animals were sacrificed on day 15 and the adrenal glands were isolated and weighed. Example 5 describes the expression and purification of recombinant CGH protein used in this experiment.

Test [5] relates to LPS-induced mild endotoxemia mouse model. In words: LPS-induced mild endotoxemia mouse model, serum cytokines. The test is classed as in vivo, mice. As for the experimental part: An in vivo experiment was designed to examine the effect of CGH in a mouse model of LPS-induced mild endotoxemia. This model mimics acute endotoxemia/sepsis by challenging mice with a low, non-lethal dose of bacterial endotoxin (lipopolysaccharide, LPS). Serum is collected at various timepoints (1-8 hours) after intraperitoneal LPS injection and analyzed for altered expression of a wide variety of pro- and anti-inflammatory cytokines and acute phase proteins that mediate the inflammatory response. The model provides a means to assess the potential anti-inflammatory effects of therapeutic candidates during a robust inflammatory response. To initially assess the model, we measured proinflammatory cytokines in a pilot experiment to collect reference data for the model.
C57B1/6 mice (Charles River Laboratories; 5 mice/group) were treated i.p. with PBS, 0.2 mg/kg CGH in PBS, or 2 mg/kg CGH in PBS 1 hour prior to LPS challenge. The mice were then challenged with 25 ug of LPS i.p. and bled at 1 hour and 4 hours after LPS injection. Serum was analyzed for TNF[…] (1 hour) and IL-6 (4 hours) levels by ELISA.
To determine if CGH would potentiate the effect of a sub-maximal dose of glucocorticoid, groups of 10 C57B1/6 mice each were treated i.p. with PBS, 0.15 or 1.5 mg/kg Dex, 2 mg/kg CGH, or a combination of CGH and low or high doses of Dex, 1 hour prior to injection of 25 ug LPS i.p. As shown in TABLE 3 (Expt #2), either 2 mg/kg CGH or 1.5 mg/kg Dex treatment alone (1 hour prior to LPS) caused a significant drop in serum TNFα levels at 1 hour, as observed in previous experiments. The effects of CGH administered in conjunction with Dex on inhibition of TNFα production were greater than either dose of Dex alone.

For test [6], the system named is Delayed Type Hypersensitivity (DTH) reaction. In words: Delayed Type Hypersensitivity (DTH), change in ear thickness. The format is in vivo, mice.
Test [7] concerns the target T1, thyroid-stimulating hormone receptor (TSHR) expressed on BHK cells (BHK-TSHR cells) (UniProt P16473 21-764, limits assumed).
T1 construct: whole, on cells; also called TSH receptor
The test is described as follows: radioligand saturation binding to BHK-TSHR cells, two-site non-linear regression, low-affinity site. As for the experimental part: (§3) Binding reactions were terminated by removing the binding medium and the cell monolayers were washed three times with 1.0-2.0 ml of ice-cold PBS containing 1.0 mg/ml BSA and twice with 1.0-2.0 ml of ice cold albumin-free PBS. Cells were solubilized in 1.0 ml of 1.0N NaOH for 10 min at room temperature and cell-associated radioactivity was determined in a gamma counter. The measured radioactivity was normalized to cell number that was determined on plates of cells cultured in parallel. Binding data were analyzed by non-linear regression using Prizm 3.0 (GraphPad Software, San Diego, Calif.).

Test [8] deals with T1, thyroid-stimulating hormone receptor …. The test is described as follows: radioligand saturation binding to BHK-TSHR cells, two-site non-linear regression, high-affinity site. As for the experimental part: as §3
The target of test [9] is T2, human TSHR (Homo sapiens, UniProt P16473).
T2 construct: expressed in transfected cells; host or cells: BHK cells
In words: Bioactivity in BHK cells with CRE-luciferase reporter and human TSHR. The format is cell-based. The following applies: CRE-luciferase reporter.

Test [10] deals with parental BHK cells lacking the TSHR. In words: Binding of radioligands to parental BHK cells. The settings on record: data not shown. As for the experimental part: as §3, with “BHK cells expressing murine or human TSHRs were cultured in Dulbecco's Modified Eagle's Medium [DMEM (high glucose)] containing 5% fetal bovine serum, 1% Glutamax, 1% sodium pyruvate, 250 nM methotrexate, and Geneticin ( 1/100). […] Plates of cells were placed on ice and washed twice with 1.0-2.0 ml of ice-cold PBS. […] Specific binding was determined in the presence (nonspecific binding) and absence (total binding) of unlabeled rhCGH (25.0 μg/ml) or TSH (10 μg/ml). Binding reactions” for “Binding reactions”

Test [11] has as its system TSHR. In words: Binding of 125I-CGH and 125I-TSH to BHK cells expressing the TSHR. Set-up: species or system murine or human. As for the experimental part: as §3, with “BHK cells expressing murine or human TSHRs were cultured in Dulbecco's Modified Eagle's Medium [DMEM (high glucose)] containing 5% fetal bovine serum, 1% Glutamax, 1% sodium pyruvate, 250 nM methotrexate, and Geneticin ( 1/100). […] Plates of cells were placed on ice and washed twice with 1.0-2.0 ml of ice-cold PBS. […] Specific binding was determined in the presence (nonspecific binding) and absence (total binding) of unlabeled rhCGH (25.0 μg/ml) or TSH (10 μg/ml). Binding reactions” for “Binding reactions”

[12] abbreviates: Expt 1, 1.5 mg/kg Dex i.p. at challenge (d7), 24 h.
[13] abbreviates: Expt 2, 1.5 mg/kg Dex i.p. at challenge (d7).
The mark [14] stands for this setting: Expt 3, 1.5 mg/kg Dex i.p. at sensitization (d0-4).

Consider `CC(C)NCC(O)c1ccc(O)c(O)c1` (centres unmarked) [isoproterenol, reference compound], for which the “induction of luciferase expression / reporter gene” value in [1] is listed as 17 fold. Moreover, the “induction of luciferase expression” value in [2] was 80 fold.
As to `C[C@@H]1C[C@H]2[C@@H]3CCC4=CC(=O)C=C[C@]4(C)[C@@]3(F)[C@@H](O)C[C@]2(C)[C@@]1(O)C(=O)CO` [Dex, Dexamethasone, reference compound], in test [3], the “Pixel density: Neutrophils, left ear (PBS)” value is on record as 749 +/− 686 and the “Pixel density: Neutrophils, right ear (OVA)” value was 3651 +/− 2779. Besides, the “Average adrenal weight/100 g body weight” value in [4] is recorded as 13.12 +/− 0.88. Besides, in test [5] (Expt 2, 0.15 mg/kg Dex), the “IL-6, 4 hours” value was 37.1 ± 8.8 ng/mL and the “TNFα, 1 hour” value was determined as 1765 ± 589 pg/mL. For the same molecule, in [5] (Expt 2, 1.5 mg/kg Dex), the “IL-6, 4 hours” value is 16.0 ± 4.9 ng/mL and the “TNFα, 1 hour” value amounted to 264 ± 138 pg/mL. For the same molecule, in [6] (setting [12]), the “Change in ear thickness, left ear (PBS)” value is reported as 0.42 +/− 0.52 ×10^−3 inch and the “Change in ear thickness, right ear (OVA)” value is given as 2.62 +/− 1.18 ×10^−3 inch. For the same molecule, in [6] (setting [13]), the “Change in ear thickness, left ear (PBS)” value is given as 0.23 +/− 0.77 ×10^−3 inch and the “Change in ear thickness, right ear (OVA)” value is given as 2.89 +/− 1.29 ×10^−3 inch. In addition, in test [6] (setting [14]), the “Change in ear thickness, left ear (PBS)” value is reported as 0.50 +/− 0.54 ×10^−3 inch and the “Change in ear thickness, right ear (OVA)” value was 4.38 +/− 1.34 ×10^−3 inch.

B1: recombinant human Corticotroph-derived Glycoprotein Hormone (rhCGH), heterodimer of GPHA2 and GPHB5 (ligand)
chain 1: QEAVIPGCHLHPFNVTVRSDRQGTCQGSHVAQACVGHCESSAFPSRYSVLVASGYRHNITSVSQCCTISGLKKVKVQLQCVGSRREELEIFTARACQCDMCRLSRY
chain 2: ASSGNLRTFVGCAVREFTFLAKKPGCRGLRITTDACWGRCETWEKPILEPPYIEAHHRVCTYNETKQVTVKLPNCAPGVDPFYTYPVAIRCDCGACSTATTECETI
notes: correct NH2 termini reported; also called Thyrostimulin
As usually defined, the Kd is the constant that tells how readily two partners part at equilibrium. A high value points to a looser complex. For B1, the Kd in [7] worked out at 2700 µM; in [8] it was 0.00119 µM.

B2: ^125I-CGH: rhCGH radiolabeled with 125I-Bolton Hunter Reagent (protein)
chain 1: B1 chain 1
chain 2: B1 chain 2
As usually defined, the Hill slope is the slope factor of the fitted curve. Turning to B2, in [9], the “bioactivity compared to unlabeled counterpart” value is listed as “no significant differences”. Besides, the “binding to parental BHK cells lacking the TSHR” value in [10] is on record as “Little or no binding”. For the same molecule, the “high affinity sites per cell” value in test [11] was 86,000 sites per cell. In test [11] (specific-binding data), this molecule returned a Hill slope of 1.08. Further, in [11] (two-site model), the “Bmax, high-affinity site” value worked out at 139±74 fmol/10^6 cells and the “Bmax, low-affinity site” value is reported as 1.6±1.4×10^6 fmol/10^6 cells.
